Biological target: T1, human mAChR M4 (Homo sapiens, UniProt P08173)
T1 construct: expressed in transfected cells
T1 sequence (P08173 1-479): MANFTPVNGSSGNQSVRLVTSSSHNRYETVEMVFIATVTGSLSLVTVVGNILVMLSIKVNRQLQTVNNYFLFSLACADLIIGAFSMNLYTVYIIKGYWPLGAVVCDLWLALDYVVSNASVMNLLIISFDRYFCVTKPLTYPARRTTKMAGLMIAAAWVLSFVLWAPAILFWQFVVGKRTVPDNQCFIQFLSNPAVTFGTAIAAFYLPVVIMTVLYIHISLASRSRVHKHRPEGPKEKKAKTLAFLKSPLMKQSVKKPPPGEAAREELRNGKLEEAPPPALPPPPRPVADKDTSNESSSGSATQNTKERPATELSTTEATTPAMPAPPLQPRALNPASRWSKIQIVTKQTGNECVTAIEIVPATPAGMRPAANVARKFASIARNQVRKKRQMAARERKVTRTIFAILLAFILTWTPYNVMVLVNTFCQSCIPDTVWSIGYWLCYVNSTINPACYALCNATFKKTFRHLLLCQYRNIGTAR
Experiment: mAChR M4 cell-based functional assay (calcium mobilization, CHO-K1 hM4-Gqi5 cells)
Details: for Emax at 30 µM: CHO-K1, % ACh maximum at 30 μM, human M4; for EC50: positive allosteric modulator activity, increase in the EC20 acetylcholine response, CHO-K1 hM4-Gqi5 cells, read-out: Human M4 EC50
Outline: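 CHO-K1 cells stably expressing human M4 with chimeric Gqi5, loaded with Fluo-4 AM; compounds given as 11-point 1:3 curves and calcium flux read on FDSS at 1 Hz. Acetylcholine EC20 added at 144 s, EC80 at 230 s; agonist, PAM (EC20 potentiation) and antagonist (EC80 inhibition) EC50/Emax from four-parameter fits.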

Row | SMILES | Emax at 30 µM | EC50
1 | COc1cc(-c2cnc3c(c2)CN(c2ncc(C#N)cc2C)CC3)c(Cl)cn1 [Example 341, 6-(3-(5-chloro-2-methoxypyridin-4-yl)-7,8-dihydro-1,6-naphthyridin-6(5H)-yl)-5-methylnicotinonitrile] | 49% | 1490 nM
2 | Cc1cc(F)ncc1-c1cnc2c(c1)CN(c1nccc(C#N)c1C)CC2 [Example 437, 2-(3-(6-fluoro-4-methylpyridin-3-yl)-7,8-dihydro-1,6-naphthyridin-6(5H)-yl)-3-methylisonicotinonitrile] | 47% | 692 nM
3 | Cc1cc(C#N)cnc1N1CCc2ncc(Nc3cccc(C(F)(F)F)c3F)cc2C1 [compound 113, 6-[3-[2-fluoro-3-(trifluoromethyl)anilino]-7,8-dihydro-5H-1,6-naphthyridin-6-yl]-5-methyl-pyridine-3-carbonitrile] | 98% | 1450 nM
4 | Cc1nn(C)cc1-c1cnc2c(c1)CN(c1nc(C(F)(F)F)nc(Cl)c1C)CC2 [compound 245, 6-(6-chloro-5-methyl-2-(trifluoromethyl)pyrimidin-4-yl)-3-(1,3-dimethyl-1/-pyrazol-4-yl)-5,6,7,8-tetrahydro-1,6-naphthyridine] | 56% | 641 nM
5 | Cc1cc(C(=O)NCc2ccc(Cl)nc2)cnc1N1CCc2ncc(-c3cn(C)nc3C)cc2C1 [Example 481, N-((6-chloropyridin-3-yl)methyl)-6-(3-(1,3-dimethyl-1H-pyrazol-4-yl)-7,8-dihydro-1,6-naphthyridin-6(5H)-yl)-5-methylnicotinamide] | 58% | 1060 nM
6 | Cc1cc(C#N)cnc1N1CCc2ncc(Nc3ccc(F)cc3)cc2C1 [Example 2] | 85% | 457 nM
7 | Cc1cc(C(=O)NCc2ccc(N3CCOCC3)nc2)cnc1N1CCc2ncc(-c3cn(C)nc3C)cc2C1 [Example 480, 6-(3-(1,3-dimethyl-1H-pyrazol-4-yl)-7,8-dihydro-1,6-naphthyridin-6(5H)-yl)-5-methyl-N-((6-morpholinopyridin-3-yl)methyl)nicotinamide] | 76% | 1390 nM
8 | Cc1c(C#N)nnc(N2CCc3ncc(Nc4ccccc4C#N)cc3C2)c1C [compound 41, 6-[3-(2-cyanoanilino)-7,8-dihydro-5H-1,6-naphthyridin-6-yl]-4,5-dimethyl-pyridazine-3-carbonitrile] | 46% | 483 nM
9 | Cc1cc(C(=O)NCc2ccc3nn[nH]c3c2)cnc1N1CCc2ncccc2C1 [compound 150, N-(3H-benzotriazol-5-ylmethyl)-6-(7,8-dihydro-5H-1,6-naphthyridin-6-yl)-5-methyl-pyridine-3-carboxamide] | 61% | 4680 nM
10 | FC(F)(F)c1cnc2c(c1)CN(c1nc(C3CC3)nc3c1CCCC3)CC2 [compound 266, 2-cyclopropyl-4-(3-(trifluoromethyl)-7,8-dihydro-1,6-naphthyridin-6(5H)-yl)-5,6,7,8-tetrahydroquinazoline] | 38% | 4570 nM
11 | Cn1nccc1Nc1cnc2c(c1)CN(c1nc(Cl)nc3c1COC3)CC2 [compound 288, 6-(2-chloro-5,7-dihydrofuro[3,4-d]pyrimidin-4-yl)-N-(1-methyl-1H-pyrazol-5-yl)-5,6,7,8-tetrahydro-1,6-naphthyridin-3-amine] | – | 1220 nM
12 | Cc1c(C#N)nnc(N2CCc3ncc(N4CCOC(c5cccnc5)C4)cc3C2)c1C (centres unmarked) [Example 388, 4,5-dimethyl-6-(3-(2-(pyridin-3-yl)morpholino)-7,8-dihydro-1,6-naphthyridin-6(5H)-yl)pyridazine-3-carbonitrile] | 83% | 1250 nM

Compounds with a lower EC50, results first:

Row | Emax at 30 µM | EC50 | SMILES
13 | 111% | 50 nM | [2H]C([2H])([2H])c1cnc2c(c1)CN(c1nnc(C(=O)NCc3ccncc3)cc1C)CC2 [Example 579, 5-methyl-6-(3-(methyl-d3)-7,8-dihydro-1,6-naphthyridin-6(5H)-yl)-N-(pyridin-4-ylmethyl)pyridazine-3-carboxamide]
14 | 78% | 16 nM | Cc1cc(C(=O)N2CC(CO)C2)nnc1N1CCc2ncc(N3CCCn4nccc43)cc2C1 [Example 554, (6-(3-(6,7-dihydropyrazolo[1,5-a]pyrimidin-4(5H)-yl)-7,8-dihydro-1,6-naphthyridin-6(5H)-yl)-5-methylpyridazin-3-yl)(3-(hydroxymethyl)azetidin-1-yl)methanone]
15 | 89% | 53 nM | Cc1cc(C#N)nnc1N1CCc2ncc(N3CCOc4ncccc43)cc2C1 [Example 391, 6-(3-(2,3-dihydro-1H-pyrido[2,3-b][1,4]oxazin-1-yl)-7,8-dihydro-1,6-naphthyridin-6(5H)-yl)-5-methylpyridazine-3-carbonitrile]
16 | 93% | 78.5 nM | Cc1cc(C(=O)NCc2nccs2)cnc1N1CCc2ncc(-c3c(C)noc3C)cc2C1 [compound 172, 6-[3-(3,5-dimethylisoxazol-4-yl)-7,8-dihydro-5H-1,6-naphthyridin-6-yl]-5-methyl-N-(thiazol-2-ylmethyl)pyridine-3-carboxamide]
17 | 109% | 168 nM | Cc1cc(C(=O)N2CC(C(F)F)C2)nnc1N1CCc2ncc(C(F)(F)F)cc2C1 [Example 522, (3-(difluoromethyl)azetidin-1-yl)(5-methyl-6-(3-(trifluoromethyl)-7,8-dihydro-1,6-naphthyridin-6(5H)-yl)pyridazin-3-yl)methanone]
18 | 75% | 70 nM | Cc1cc(C(=O)N2CC(F)(F)C2)nnc1N1CCc2ncc(-c3ccnn3C)cc2C1 [Example 567, (3,3-difluoroazetidin-1-yl)(5-methyl-6-(3-(1-methyl-1H-pyrazol-5-yl)-7,8-dihydro-1,6-naphthyridin-6(5H)-yl)pyridazin-3-yl)methanone]
19 | 78% | 214 nM | Cc1nn(C)cc1-c1cnc2c(c1)CN(c1nc(N3CCCC3)nc(C)c1C)CC2 [compound 271, 3-(1,3-dimethyl-1H-pyrazol-4-yl)-6-(5,6-dimethyl-2-(pyrrolidin-1-yl)pyrimidin-4-yl)-5,6,7,8-tetrahydro-1,6-naphthyridine]
20 | 91% | 339 nM | Cc1cc(C#N)cnc1N1CCc2ncc(-c3cnn(C4CCC4)c3)cc2C1 [compound 101, 6-[3-(1-cyclobutylpyrazol-4-yl)-7,8-dihydro-5H-1,6-naphthyridin-6-yl]-5-methyl-pyridine-3-carbonitrile]
21 | 72% | 86 nM | Cc1cc(C(=O)N2CC(C)(F)C2)nnc1N1CCc2ncc(-c3ccnn3C)cc2C1 [Example 564, (3-fluoro-3-methylazetidin-1-yl)(5-methyl-6-(3-(1-methyl-1H-pyrazol-5-yl)-7,8-dihydro-1,6-naphthyridin-6(5H)-yl)pyridazin-3-yl)methanone]
22 | 90% | 51 nM | Cc1cc(C(=O)N2Cc3cccnc3C2)nnc1N1CCc2ncc(N3CCCn4nccc43)cc2C1 [Example 513, (5,7-dihydro-6H-pyrrolo[3,4-b]pyridin-6-yl)(6-(3-(6,7-dihydropyrazolo[1,5-a]pyrimidin-4(5H)-yl)-7,8-dihydro-1,6-naphthyridin-6(5H)-yl)-5-methylpyridazin-3-yl)methanone]
23 | 103% | 110 nM | Cc1cc(C(=O)NCc2nccs2)cnc1N1CCc2ncc(-c3cn(C)nc3C)cc2C1 [compound 170, 6-[3-(1,3-dimethylpyrazol-4-yl)-7,8-dihydro-5H-1,6-naphthyridin-6-yl]-5-methyl-N-(thiazol-2-ylmethyl)pyridine-3-carboxamide]
24 | 91% | 101 nM | Cc1cc(F)ncc1-c1cnc2c(c1)CN(c1ncc(C(=O)NCc3ccncc3)cc1C)CC2 [compound 177, 6-[3-(6-fluoro-4-methyl-3-pyridyl)-7,8-dihydro-5H-1,6-naphthyridin-6-yl]-5-methyl-N-(4-pyridylmethyl)pyridine-3-carboxamide]
25 | 70% | 331 nM | Cc1c(C#N)nnc(N2Cc3cc(C(F)(F)F)cnc3C(C)C2)c1C (centres unmarked) [Example 348, 4,5-dimethyl-6-(8-methyl-3-(trifluoromethyl)-7,8-dihydro-1,6-naphthyridin-6(5H)-yl)pyridazine-3-carbonitrile]
26 | 96% | 234 nM | Cc1ccc(Nc2cnc3c(c2)CN(c2ncc(C#N)cc2C)CC3)c(F)n1 [compound 132, 6-[3-[(2-fluoro-6-methyl-3-pyridyl)amino]-7,8-dihydro-5H-1,6-naphthyridin-6-yl]-5-methyl-pyridine-3-carbonitrile]
27 | 102% | 278 nM | Cc1cnc2c(c1)CN(c1nnc(C(=O)NCc3csc4ccccc34)c(C)c1C)CC2 [Example 470, N-(benzo[b]thiophen-3-ylmethyl)-4,5-dimethyl-6-(3-methyl-7,8-dihydro-1,6-naphthyridin-6(5H)-yl)pyridazine-3-carboxamide]

— US20250230155A1 (Vanderbilt University, priority 2021, published 2025)
